According to ChEMBL document CHEMBL1154825, “Schweinfurthins I and J from Macaranga schweinfurthii” (2010):

Columns and labels:
Format in all cases: functional
SNB-75 = assay: Growth inhibition of human SNB75 cells; settings: for TGI: read-out: pTGI (converted)
UACC-257 = assay: Growth inhibition of human UACC257 cells; settings: for TGI: read-out: pTGI (converted)
KM12 = assay: Growth inhibition of human KM12 cells; settings: for TGI: read-out: pTGI (converted)
HL-60(TB) = assay: Growth inhibition of human HL-60(TB) cells; settings: for CC50: read-out: pLC50 (the source's name) (converted); for TGI: read-out: pTGI (converted)
CAKI-1 = assay: Growth inhibition of human Caki1 cells; settings: for CC50: read-out: pLC50 (the source's name) (converted); for TGI: read-out: pTGI (converted)
TK-10 = assay: Growth inhibition of human TK10 cells; settings: for TGI: read-out: pTGI (converted)
M14 = assay: Growth inhibition of human M14 cells; settings: for CC50: read-out: pLC50 (the source's name) (converted); for TGI: read-out: pTGI (converted)
BT-549 = assay: Growth inhibition of human BT549 cells; settings: for TGI: read-out: pTGI (converted)
SK-MEL-5 = assay: Growth inhibition of human SK-MEL-5 cells; settings: for CC50: read-out: pLC50 (the source's name) (converted); for TGI: read-out: pTGI (converted)
OVCAR-8 = assay: Growth inhibition of human OVCAR8 cells; settings: for TGI: read-out: pTGI (converted)
MOLT-4 = assay: Growth inhibition of human MOLT4 cells; settings: for TGI: read-out: pTGI (converted)
LOX IMVI = assay: Growth inhibition of human LOXIMVI cells; settings: for CC50: read-out: pLC50 (the source's name) (converted); for TGI: read-out: pTGI (converted)
[1] = Growth inhibition of human NCI60 cells
SF-268 = assay: Growth inhibition of human SF268 cells; settings: for TGI: read-out: pTGI (converted)
EKVX = assay: Growth inhibition of human EKVX cells; settings: for TGI: read-out: pTGI (converted)
SR = assay: Growth inhibition of human SR cells; settings: for TGI: read-out: pTGI (converted)
SF-539 = assay: Growth inhibition of human SF539 cells; settings: for TGI: read-out: pTGI (converted)
NCI-H226 = assay: Growth inhibition of human NCI-H226 cells; settings: for TGI: read-out: pTGI (converted)

`CC(C)=CCC/C(C)=C/Cc1cc(/C=C/c2cc(O)cc(O)c2)ccc1O` [SCHWEINFURTHIN I] showed a GI50 (SNB-75) of 11.2 µM, an LC50 (SNB-75) of 52.5 µM and a TGI (SNB-75) of 24.5 µM. The GI50 (UACC-257) was 14.5 µM, the LC50 (UACC-257) was 60.3 µM and the TGI (UACC-257) was 29.5 µM. It also gave a GI50 (KM12) of 7.08 µM, an LC50 (KM12) of 49 µM and a TGI (KM12) of 20.4 µM. The GI50 (HL-60(TB)) was 5.37 µM, the CC50 (HL-60(TB)) was 77.6 µM and the TGI (HL-60(TB)) was 23.4 µM. The GI50 (CAKI-1) was 5.62 µM, the CC50 (CAKI-1) was 43.7 µM and the TGI (CAKI-1) was 18.6 µM. For the same compound, the GI50 (TK-10) was 14.8 µM, the LC50 (TK-10) was 56.2 µM and the TGI (TK-10) was 28.8 µM. The GI50 (M14) was 12.9 µM, the CC50 (M14) was 53.7 µM and the TGI (M14) was 26.3 µM. The GI50 (BT-549) was 7.41 µM, the LC50 (BT-549) was 45.7 µM and the TGI (BT-549) was 20 µM. The GI50 (SK-MEL-5) was 4.68 µM, the CC50 (SK-MEL-5) was 43.7 µM and the TGI (SK-MEL-5) was 17.4 µM. The GI50 (OVCAR-8) was 13.8 µM, the LC50 (OVCAR-8) was 70.8 µM and the TGI (OVCAR-8) was 30.9 µM. It also gave a GI50 (MOLT-4) of 7.24 µM, an LC50 (MOLT-4) of over 100 µM and a TGI (MOLT-4) of 30.2 µM. For the same compound, the GI50 (LOX IMVI) was 7.24 µM, the CC50 (LOX IMVI) was 50.1 µM and the TGI (LOX IMVI) was 20.9 µM. For the same compound, the GI50 [1] was 10 µM, the GI50 (SF-268) was 8.71 µM and the LC50 (SF-268) was 51.3 µM. For the same compound, the TGI (SF-268) was 21.9 µM, the GI50 (EKVX) was 10.5 µM and the LC50 (EKVX) was 50.1 µM. It also gave a TGI (EKVX) of 22.9 µM, a GI50 (SR) of 11.2 µM and an LC50 (SR) of over 100 µM. The TGI (SR) was 43.7 µM, the GI50 (SF-539) was 5.13 µM and the LC50 (SF-539) was 47.9 µM. It also gave a TGI (SF-539) of 17.8 µM, a GI50 (NCI-H226) of 16.6 µM and an LC50 (NCI-H226) of 74.1 µM. For the same compound, the TGI (NCI-H226) was 35.5 µM.

`CC(C)=CCC/C(C)=C/CC/C(C)=C/Cc1c(O)cc(/C=C/c2ccc(O)cc2)cc1O` [SCHWEINFURTHIN J] gave a GI50 (SNB-75) of 8.91 µM, an LC50 (SNB-75) of 46.8 µM and a TGI (SNB-75) of 21.4 µM. It also gave a GI50 (UACC-257) of 4.68 µM, an LC50 (UACC-257) of 41.7 µM and a TGI (UACC-257) of 16.2 µM. The GI50 (KM12) was 2.75 µM, the LC50 (KM12) was 31.6 µM and the TGI (KM12) was 8.91 µM. For the same compound, the GI50 (HL-60(TB)) was 2.57 µM, the CC50 (HL-60(TB)) was over 100 µM and the TGI (HL-60(TB)) was 18.6 µM. It also gave a GI50 (CAKI-1) of 1.82 µM, a CC50 (CAKI-1) of 25.1 µM and a TGI (CAKI-1) of 5.89 µM. The GI50 (TK-10) was 2.63 µM, the LC50 (TK-10) was 31.6 µM and the TGI (TK-10) was 9.33 µM. For the same compound, the GI50 (M14) was 2 µM, the CC50 (M14) was 8.51 µM and the TGI (M14) was 4.17 µM. For the same compound, the GI50 (BT-549) was 2.57 µM, the LC50 (BT-549) was 30.9 µM and the TGI (BT-549) was 8.91 µM. For the same compound, the GI50 (SK-MEL-5) was 1.7 µM, the CC50 (SK-MEL-5) was 5.75 µM and the TGI (SK-MEL-5) was 3.16 µM. It also gave a GI50 (OVCAR-8) of 3.31 µM, an LC50 (OVCAR-8) of 43.7 µM and a TGI (OVCAR-8) of 11.5 µM. For the same compound, the GI50 (MOLT-4) was 4.07 µM, the LC50 (MOLT-4) was over 100 µM and the TGI (MOLT-4) was 25.1 µM. For the same compound, the GI50 (LOX IMVI) was 1.7 µM, the CC50 (LOX IMVI) was 5.89 µM and the TGI (LOX IMVI) was 3.16 µM. For the same compound, the GI50 [1] was 2.8 µM, the GI50 (SF-268) was 2.63 µM and the LC50 (SF-268) was 38 µM. For the same compound, the TGI (SF-268) was 11.5 µM, the GI50 (EKVX) was 4.27 µM and the LC50 (EKVX) was 46.8 µM. For the same compound, the TGI (EKVX) was 16.6 µM, the GI50 (SR) was 4.27 µM and the LC50 (SR) was over 100 µM. The TGI (SR) was 29.5 µM, the GI50 (SF-539) was 2.51 µM and the LC50 (SF-539) was 18.6 µM. The TGI (SF-539) was 5.62 µM, the GI50 (NCI-H226) was 3.63 µM and the LC50 (NCI-H226) was 55 µM. It also gave a TGI (NCI-H226) of 14.8 µM.
